The source made the active and inactive calls. The calls are words filed in the database; no cut-off is given here.
Columns and labels:
[1] = biological target: T1, Amyloid-beta precursor protein (Homo sapiens, UniProt P05067); assay: Inhibition of amyloid beta (1 to 42) (unknown origin) aggregation after 24 hrs by thioflavin T fluorescence assay
[2] = biological target: T1, Amyloid-beta precursor protein; assay: Inhibition of amyloid beta (1 to 42) (unknown origin) fibril formation after 24 hrs by silicotungstic acid staining based transmission electron microscopic analysis
[3] = biological target: T1, Amyloid-beta precursor protein; assay: Inhibition of amyloid beta (1 to 42) (unknown origin) fibril formation at 100 uM after 24 hrs by silicotungstic acid staining based transmission electron microscopic analysis

T1 sequence (P05067 whole entry): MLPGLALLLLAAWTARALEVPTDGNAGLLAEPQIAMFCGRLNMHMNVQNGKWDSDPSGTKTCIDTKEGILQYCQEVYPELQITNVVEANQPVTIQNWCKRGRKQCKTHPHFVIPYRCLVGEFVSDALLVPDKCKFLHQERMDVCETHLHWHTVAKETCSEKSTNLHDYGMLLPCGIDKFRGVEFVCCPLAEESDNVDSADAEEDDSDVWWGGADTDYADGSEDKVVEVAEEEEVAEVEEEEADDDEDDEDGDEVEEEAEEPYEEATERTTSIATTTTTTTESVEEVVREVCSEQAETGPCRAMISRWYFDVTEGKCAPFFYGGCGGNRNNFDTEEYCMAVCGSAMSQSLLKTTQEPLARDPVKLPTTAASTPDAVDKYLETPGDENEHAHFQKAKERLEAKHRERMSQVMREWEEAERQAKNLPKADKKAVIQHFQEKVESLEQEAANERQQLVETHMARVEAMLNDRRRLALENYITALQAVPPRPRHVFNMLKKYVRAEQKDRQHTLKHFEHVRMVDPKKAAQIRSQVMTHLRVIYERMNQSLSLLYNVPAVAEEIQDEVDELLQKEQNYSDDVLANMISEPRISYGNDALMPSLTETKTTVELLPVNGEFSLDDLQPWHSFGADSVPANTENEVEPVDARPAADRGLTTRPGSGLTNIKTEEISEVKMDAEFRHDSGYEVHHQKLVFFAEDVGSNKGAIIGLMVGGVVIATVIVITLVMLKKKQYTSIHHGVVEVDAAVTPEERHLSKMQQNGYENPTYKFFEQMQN

Row | SMILES | IC50 [1] [µM] | inhibition [1] | inhibition [2] | inhibition [3]
1 | O=C(/C=C/c1ccc(O)c(O)c1)N[C@@H](Cc1ccc(O)c(O)c1)C(=O)O | 5.7 | Dose-dependent effect | Dose-dependent effect | 
2 | O=C(/C=C/c1ccc(O)c(O)c1)N[C@H](Cc1ccc(O)c(O)c1)C(=O)O | 1.6 | Dose-dependent effect | Dose-dependent effect | 
3 | COC(=O)[C@H](Cc1ccc(O)c(O)c1)NC(=O)/C=C/c1ccc(O)c(O)c1 [N-CAFFEOYL-DOPA METHYL ESTER] | 4.9 | Dose-dependent effect | Dose-dependent effect | 
4 | COC(=O)[C@H](Cc1ccc(OC)c(OC)c1)NC(=O)/C=C/c1ccc(OC)c(OC)c1 | > 100 |  |  | inactive
5 | O=C(/C=C/c1ccccc1)N[C@@H](Cc1ccc(O)cc1)C(=O)O | > 100 |  |  | inactive
6 | O=C(/C=C/c1ccc(O)cc1)N[C@@H](Cc1ccccc1)C(=O)O | > 100 |  |  | inactive
7 | O=C(/C=C/c1ccccc1)N[C@@H](Cc1ccccc1)C(=O)O | > 100 |  |  | inactive
8 | O=C(/C=C/c1ccc(O)cc1)N[C@@H](Cc1ccc(O)cc1)C(=O)O | > 100 |  |  | inactive
9 | O=C(/C=C/c1ccc(O)cc1)N[C@@H](Cc1ccc(O)c(O)c1)C(=O)O | > 100 |  |  | inactive
10 | O=C(/C=C/c1ccc(O)c(O)c1)N[C@@H](Cc1ccc(O)cc1)C(=O)O | 87.8 | Dose-dependent effect | Dose-dependent effect | 
11 | O=C(CCc1ccc(O)c(O)c1)N[C@@H](Cc1ccc(O)c(O)c1)C(=O)O | 8.7 | Dose-dependent effect | Dose-dependent effect | 
12 | O=C(/C=C/c1ccc(O)c(O)c1)N[C@@H](Cc1ccccc1)C(=O)O | 72.9 | Dose-dependent effect | Dose-dependent effect | 
13 | O=C(/C=C/c1ccccc1)N[C@@H](Cc1ccc(O)c(O)c1)C(=O)O | 22.7 | Dose-dependent effect | Dose-dependent effect | 
